Paper PMC12117050 (Scientific Reports, 2025)

Key:
CYP3A [1] = settings: cited from earlier work
CYP3A4 = settings: cited from earlier work
CYP3A [2] = settings: by inhibiting CYP3A activity; cited from earlier work
[3] = Midazolam pharmacokinetics in rats after 7-day MFE or water pre-treatment; settings: rat
[4] = Sprague Dawley, plasma, po, 15 mg/kg

O=C(O[C@@H]1Cc2c(O)cc(O)cc2O[C@@H]1c1cc(O)c(O)c(O)c1)c1cc(O)c(O)c(O)c1 [EGCG, epigallocatechin gallate]
Inhibition of CYP3A activity in human liver microsomes (CYP3A [1]): moderately inhibits
Inhibition of CYP3A4 activity (CYP3A4): irreversibly inhibits
Effect on pharmacokinetics of nicardipine in rats (CYP3A [2]): alters the pharmacokinetics of nicardipine

Cc1ncc2n1-c1ccc(Cl)cc1C(c1ccccc1F)=NC2 [Midazolam]
Tmax ([3]; Sprague Dawley, plasma, po): 15 min
Cmax [3, 4]: 708 ± 91 ng/mL
Tmax [3, 4]: 30 min
Cmax ([3]; midazolam 15 mg/kg oral, control (water pre-treatment 7 days)): 919 ± 70 ng/mL
AUC0−∞ higher in MFE pre-treatment group compared to control group ([3]; midazolam 15 mg/kg oral, no significant difference): 12%
